Results as given in ChEMBL document CHEMBL1121376, “Antihypertensive (2-aminoethyl)thiourea derivatives. 2” (1980).
Active and inactive are the calls of the source. The rule behind the calls is not given here.

Assays:
Rattus norvegicus [1] = experiment: Evaluation of antihypertensive activity in DOCA/salt hypertensive rats at peroral dose of 10,30,100 mg /kg; value ranges from 12-20%; assay type: functional
Rattus norvegicus [2] = experiment: Evaluation of antihypertensive activity in spontaneously hypertensive rats at peroral dose of 10, 30,100 mg /kg; assay type: functional
Rattus norvegicus [3] = experiment: Evaluation of decrease in heart rate (antihypertensive activity) in spontaneously hypertensive rats after 3-6h 0f peroral dose of 100 mg /kg; assay type: functional
Canis familiaris [4] = experiment: Evaluation of antihypertensive activity renally hypertensive dog at dose 10,30,100mg/kg(po); Inactive; assay type: functional, organism-based; settings: Canis lupus familiaris
Rattus norvegicus [5] = experiment: Evaluation of antihypertensive activity in DOCA/salt hypertensive rats at peroral dose of 10 mg/kg; no effect on HR; Inactive; assay type: functional, organism-based; set-up: dose 10 mg/kg
Canis familiaris [6] = experiment: Evaluation of antihypertensive activity renally hypertensive dog at dose 10 mg/kg; assay type: functional, Canis lupus familiaris

## NCC/N=C(\S)Nc1c(Cl)cccc1Cl
Rattus norvegicus [1]
  Decrease in blood pressure: 12%
Rattus norvegicus [2]
  Reduction in blood pressure: 12.7%
Rattus norvegicus [3]
  Reduction in heart rate: 12.7%
Canis familiaris [4]
  Reduction in arterial blood pressure: inactive
Rattus norvegicus [5]
  Reduction in arterial blood pressure: inactive
Canis familiaris [6]
  Reduction in arterial blood pressure: 7%
